Data taken from patent US8946478B2, “Benzamide derivative with anticancer activity and preparation method and use thereof” (Zhejiang Hisun Pharmaceutical Co., Ltd., priority 2010, dated 2015).

Experiments:
Experiment in all cases: In vitro SRB tumor cell growth inhibition (GI50)
Type in all cases: cell-based
human hepatoma HepG 2 = conditions: HepG2, HepG 2 cells, 48 h
[1] = test system: human uterine cancer Hela; conditions: Homo sapiens, HeLa, 48 h, Hela cells
human leukemia HL-60 = conditions: Homo sapiens, HL-60, 48 h, HL-60 cells
human leukemia K562 = conditions: Homo sapiens, K562, 48 h, K562 cells
[2] = test system: human colon cancer cell strain Colo205; conditions: Colo 205 cells, 48 h
[3] = test system: human lung cancer cell strain NCI-460; conditions: Homo sapiens, NCI-460, 48 h, NCI-460 cells
Procedure, shortened: (§1)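 A549 and PANC-1 seeded at 10000 cells/well, OVCAR-5 and NCI460 at 5000 cells/well in DMEM/10% FBS, pre-incubated 24 h at 37 °C. Compounds added for 48 h, triplicate; cells TCA-fixed, SRB-stained, absorbance read at 515 nm with 690 nm blank. GI50 from dose-response curve, time-zero wells included.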

[4] = test system: human lung cancer cell strain 95D; conditions: Homo sapiens, 95-D, 48 h, 95D cells
[5] = test system: human ovarian cancer cell strain OVCAR-8; conditions: Homo sapiens, OVCAR-8, 48 h, OVCAR-8 cells
[6] = test system: human ovarian cancer cell strain OVCAR-5; conditions: OVCAR-5 cells, 48 h
Procedure, shortened: as §1

[7] = test system: human breast cancer cell strain MCF-7; conditions: Homo sapiens, MCF7, 48 h, MCF-7 cells
[8] = test system: human prostate cancer BXPC-3; conditions: BXPC-3 cells, 48 h
[9] = test system: human colon cancer cell strain HCT-116; conditions: Homo sapiens, HCT-116, 48 h, HCT-116 cells
[10] = test system: human ovarian cancer cell strain HO8910; conditions: HO-8910, HO8910 cells, 48 h
[11] = test system: human lung cancer cell strain A549; conditions: A549 cells, 48 h
Procedure, shortened: as §1

[12] = test system: human pancreatic cancer PANC-1; conditions: Homo sapiens, PANC-1, 48 h, PANC-1 cells
Procedure, shortened: as §1

[13] = test system: human breast cancer cell strain MDA-MB435; conditions: Homo sapiens, MDA-MB-435, 48 h, MDA-MB435 cells
[14] = test system: human ovarian cancer cell strain SKOV-3; conditions: SK-OV-3, SKOV-3 cells, 48 h
[15] = test system: human prostate cancer DU145; conditions: Homo sapiens, DU-145, 48 h, DU145 cells

Row | SMILES | GI50 (human hepatoma HepG 2) [µM] | GI50 [1] [µM] | GI50 (human leukemia HL-60) [µM] | GI50 (human leukemia K562) [µM] | GI50 [2] [µM] | GI50 [3] [µM] | GI50 [4] [µM] | GI50 [5] [µM] | GI50 [6] [µM] | GI50 [7] [µM] | GI50 [8] [µM] | GI50 [9] [µM] | GI50 [10] [µM] | GI50 [11] [µM] | GI50 [12] [µM] | GI50 [13] [µM] | GI50 [14] [µM] | GI50 [15] [µM]
1 | NC(=O)c1ccc(I)c([N+](=O)[O-])c1 [BSI-201, 4-iodo-3-nitrobenzamide, reference compound] | > 100 | 64.7 | 74.1 | 44.6 | 76 | > 100 | 53.8 | 103 | 61.1 | 40.1 | 105 | 64.7 | 72.6 | 105 | 25.5 | 64.4 | 38.5 | 86.6
2 | C#Cc1ccc(C(N)=O)cc1[N+](=O)[O-] [Compound I-1, 4-ethynyl-3-nitrobenzamide] | 8.73 | 5.28 | 2.11 | 3.02 | 4.84 | 10.9 | 1.88 | 11.7 | 4.29 | 2.47 | 4.68 | 1.9 | 1.47 | 4.56 | 7.41 | 2.05 | 3.17 | 4.78
